From BindingDB's records for doi:10.1021/jm9011609 (University of Manchester, 2009) come the findings set out here.

This experiment deals with NAD(P)H dehydrogenase [quinone] 1 (Homo sapiens, UniProt P15559). The experiment is described as follows: Inhibition of NQO1 (With 2 uM BSA). The following applies: pH 7.5. On the procedure:
On some occasions, potential inhibitors were dissolved in 0.13 M NaOH. Reactions were carried out at 25 deg C and cytochrome c reduction was monitored at 550nm in a BeckmanDU650 spectrophotometer.

NAD(P)H dehydrogenase [quinone] 1, sequence (P15559 whole entry): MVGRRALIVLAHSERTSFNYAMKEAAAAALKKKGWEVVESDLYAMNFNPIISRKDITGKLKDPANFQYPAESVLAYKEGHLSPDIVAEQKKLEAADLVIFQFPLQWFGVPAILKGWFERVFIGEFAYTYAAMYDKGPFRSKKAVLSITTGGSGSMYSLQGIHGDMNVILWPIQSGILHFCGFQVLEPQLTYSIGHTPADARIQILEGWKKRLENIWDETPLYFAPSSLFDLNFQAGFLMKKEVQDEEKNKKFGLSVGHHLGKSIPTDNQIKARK

What is called IC50 is the concentration at which inhibition is half-maximal. Higher therefore signals weaker potency in that assay. `O=c1oc2c(ccc3ccccc32)c(O)c1Cc1ccccc1` [4-hydroxy-2H-chromen-2-one core, 21] gave an IC50 of 0.035 µM. This molecule displayed an IC50 (25 °C) of 0.88 µM.
The matching figures for `O=c1oc2ccc3ccccc3c2c(O)c1Cc1ccc2ccccc2c1` [4-hydroxy-2H-chromen-2-one core, 23]: 0.006 µM and 2.37 µM.
